Source: patent US10233188B2, “CDK2/4/6 inhibitors” (priority 2016, dated 2019)

Molecular target: CDK2/Cyclin E1 (Homo sapiens (Human), UniProt P24941)
Experiment: biochemical
Conditions: CDK2_Ki (nM), phosphorylated CDK2/Cyclin E1, 150 μM ATP, Morrison tight-binding fit
Description: The assay was initiated with the addition of ATP, following a fifteen minutes pre-incubation of enzyme and inhibitor at room temperature in the reaction mixture. The reaction was stopped after 45 minutes at room temperature by the addition of 50 μL of 80 mM EDTA, pH 7.5.

| Compound | Ki [nM] |
| --- | --- |
| CNS(=O)(=O)N1CCC(Nc2ncc3ccc(=O)n([C@H]4CCC[C@]4(C)O)c3n2)CC1 (single isomer, unassigned) [Example 57, (+)-4-({8-[(1R*,2R*)-2-hydroxy-2-methylcyclopentyl]-7-oxo-7,8-dihydropyrido[2,3-d]pyrimidin-2-yl}amino)-N-methylpiperidine-1-sulfonamide] | 5.21 |
| C[C@H]1CC[C@@H](O)C[C@@H]1n1c(=O)ccc2cnc(NC3CCN(S(C)(=O)=O)CC3)nc21 [Example 216, 8-[(1S,2S,5R)-5-hydroxy-2-methylcyclohexyl]-2-{[1-(methylsulfonyl)piperidin-4-yl]amino}pyrido[2,3-d]pyrimidin-7(8H)-one] | 1.48 |
| C[C@]1(O)CCC[C@@H]1n1c(=O)ccc2cnc(NC3CCN(S(=O)(=O)NC[C@H]4CCCO4)CC3)nc21 (single isomer, unassigned) [Example 65, (+)-4-({8-[(1R*,2R*)-2-hydroxy-2-methylcyclopentyl]-7-oxo-7,8-dihydropyrido[2,3-d]pyrimidin-2-yl}amino)-N-[(2R)-tetrahydrofuran-2-ylmethyl]piperidine-1-sulfonamide] | 4.85 |
| CS(=O)(=O)N1CC[C@@H](Nc2ncc3cc(CCO)c(=O)n(C4CCCC4)c3n2)[C@H](F)C1 (single isomer, unassigned) [Example 157, (+)-8-cyclopentyl-2-{[(3S*,4S*)-3-fluoro-1-(methylsulfonyl)piperidin-4-yl]amino}-6-(2-hydroxyethyl)pyrido[2,3-d]pyrimidin-7(8H)-one] | 36 |
| C[C@]1(O)CCC[C@@H]1n1c(=O)ccc2cnc(NC3CCN(S(=O)(=O)C(F)(F)F)CC3)nc21 (single isomer, unassigned) [Example 89, (+)-8-[(1R*,2R*)-2-hydroxy-2-methylcyclopentyl]-2-({1-[(trifluoromethyl)sulfonyl]piperidin-4-yl}amino)pyrido[2,3-d]pyrimidin-7(8H)-one] | 17.6 |
| C=Cc1cc2cnc(NC3CCN(S(C)(=O)=O)CC3)nc2n(C2CCCC2)c1=O [Example 138, 8-cyclopentyl-6-ethenyl-2-{[1-(methylsulfonyl)piperidin-4-yl]amino}pyrido[2,3-d]pyrimidin-7(8H)-one] | 0.87 |
| COCCc1cc2cnc(N[C@@H]3CCN(S(C)(=O)=O)C[C@H]3F)nc2n(C2CCCC2)c1=O (single isomer, unassigned) [Example 159, (+)-8-cyclopentyl-2-{[(3S*,4S*)-3-fluoro-1-(methylsulfonyl)piperidin-4-yl]amino}-6-(2-methoxyethyl)pyrido[2,3-d]pyrimidin-7(8H)-one] | 95.2 |
| CNS(=O)(=O)N1CCC(Nc2ncc3cc(C)c(=O)n([C@H]4CCC[C@H]4C)c3n2)CC1 [Example 43, N-methyl-4-({6-methyl-8-[(1S,2R)-2-methylcyclopentyl]-7-oxo-7,8-dihydropyrido[2,3-d]pyrimidin-2-yl}amino)piperidine-1-sulfonamide] | 1.56 |
| Cc1cc2cnc(NC3CCN(S(=O)(=O)NC[C@H]4CCCO4)CC3)nc2n([C@@H]2CCC[C@@]2(C)O)c1=O (single isomer, unassigned) [Example 102, (−)-4-({8-[(1R*,2R*)-2-hydroxy-2-methylcyclopentyl]-6-methyl-7-oxo-7,8-dihydropyrido[2,3-d]pyrimidin-2-yl}amino)-N-[(2H)-tetrahydrofuran-2-ylmethyl]piperidine-1-sulfonamide] | 0.24 |
| C[C@@]1(O)CCC[C@H]1n1c(=O)ccc2cnc(NC3CCN(S(=O)(=O)NC[C@@H]4CCCO4)CC3)nc21 (single isomer, unassigned) [Example 62, (−)-4-({8-[(1R*,2R*)-2-hydroxy-2-methylcyclopentyl]-7-oxo-7,8-dihydropyrido[2,3-d]pyrimidin-2-yl}amino)-N-[(2S)-tetrahydrofuran-2-ylmethyl]piperidine-1-sulfonamide] | 0.35 |
| CNS(=O)(=O)N1CCC(Nc2ncc3cc(C)c(=O)n([C@H]4CCC[C@]4(C)O)c3n2)CC1 (single isomer, unassigned) [Example 95, (+)-4-({8-[(1R*,2R*)-2-hydroxy-2-methylcyclopentyl]-6-methyl-7-oxo-7,8-dihydropyrido[2,3-d]pyrimidin-2-yl}amino)-N-methylpiperidine-1-sulfonamide] | 1.39 |
| CS(=O)(=O)N1CCC(Nc2ncc3cc(CC(F)F)c(=O)n(C4CCCC4)c3n2)CC1 [Example 149, 8-cyclopentyl-6-(2,2-difluoroethyl)-2-{[1-(methylsulfonyl)piperidin-4-yl]amino}pyrido[2,3-d]pyrimidin-7(8H)-one] | 2.29 |
| C[C@@H]1[C@H](O)CC[C@@H]1n1c(=O)ccc2cnc(NC3CCN(S(C)(=O)=O)CC3)nc21 (single isomer, unassigned) [Example 207, (+)-8-[(1R*,2R*,3S*)-3-hydroxy-2-methylcyclopentyl]-2-{[1-(methylsulfonyl)piperidin-4-yl]amino}pyrido[2,3-d]pyrimidin-7(8H)-one] | 5.05 |
| C[C@@H]1[C@H](O)CC[C@H]1n1c(=O)c(CC(F)F)cc2cnc(NC3CCN(S(C)(=O)=O)CC3)nc21 (single isomer, unassigned) [Example 206, (−)-6-(2,2-difluoroethyl)-8-[(1R*,2S*,3R*)-3-hydroxy-2-methylcyclopentyl]-2-{[1-(methylsulfonyl)piperidin-4-yl]amino}pyrido[2,3-d]pyrimidin-7(8H)-one] | 0.57 |
| CNS(=O)(=O)N1CCC(Nc2ncc3ccc(=O)n([C@H]4CCC[C@H]4C)c3n2)CC1 [Example 45, N-methyl-4-({8-[(1S,2R)-2-methylcyclopentyl]-7-oxo-7,8-dihydropyrido[2,3-d]pyrimidin-2-yl}amino)piperidine-1-sulfonamide] | 0.93 |
| C[C@H]1[C@@H](O)CCC[C@@H]1n1c(=O)ccc2cnc(NC3CCN(S(C)(=O)=O)CC3)nc21 (single isomer, unassigned) [Example 222, (+)-8-[(1S*,2R*,3S*)-3-hydroxy-2-methylcyclohexyl]-2-{[1-(methylsulfonyl)piperidin-4-yl]amino}pyrido[2,3-d]pyrimidin-7(8H)-one] | 2.06 |
| Cc1cc2cnc(NC3CCN(S(=O)(=O)NC[C@H]4CCCO4)CC3)nc2n([C@H]2CCC[C@]2(C)O)c1=O (single isomer, unassigned) [Example 103, (+)-4-({8-[(1R*,2R*)-2-hydroxy-2-methylcyclopentyl]-6-methyl-7-oxo-7,8-dihydropyrido[2,3-d]pyrimidin-2-yl}amino)-N-[(2R)-tetrahydrofuran-2-ylmethyl]piperidine-1-sulfonamide] | 3.46 |
| CS(=O)(=O)N1CCC(Nc2ncc3ccc(=O)n([C@@H]4CC[C@@H](O)C4)c3n2)CC1 (single isomer, unassigned) [Example 54, (−)-8-[(1R*,3R*)-3-hydroxycyclopentyl]-2-{[1-(methylsulfonyl)piperidin-4-yl]amino}pyrido[2,3-d]pyrimidin-7(8H)-one] | 1.44 |
| Cc1cc2cnc(NC3CCN(S(C)(=O)=O)CC3)nc2n([C@H]2CCC[C@H](O)C2)c1=O (single isomer, unassigned) [Example 33, (−)-8-[(1R*,3R*)-3-hydroxycyclohexyl]-6-methyl-2-{[1-(methylsulfonyl)piperidin-4-yl]amino}pyrido[2,3-d]pyrimidin-7(8H)-one] | 42.6 |
